Experimental data from patent US11059834B2, “Macrocyclic immunomodulators” (CHEMOCENTRYX, INC., priority 2017, dated 2021).

Target: human PD-L1 / Human PD-1 (Homo sapiens (Human), UniProt Q9NZQ7)
Assay: Enzyme-Linked Immunosorbent Assay (ELISA), PD-1/PD-L1 binding
Conditions: plate-coated human PD-L1, biotinylated human PD-1, absorbance at 450 nm
Protocol: 96 Well plates were coated with 1 μg/mL of human PD-L1 (obtained from R&D) in PBS overnight at 4° C. The wells were then blocked with 2% BSA in PBS (W/V) with 0.05% TWEEN-20 for 1 hour at 37° C. The plates were washed 3 times with PBS/0.05% TWEEN-20 and the compounds were serial diluted (1:5) in dilution medium and added to the ELISA plates. Human PD-1 and biotin 0.3 μg/mL (ACRO Biosystems) were added and incubated for 1 hour at 37° C. then washed 3 times with PBS/0.05% TWEEN-20. A second block was performed with 2% BSA in PBS (W/V)/0.05% TWEEN-20 for 10 min at 37° C. and was washed 3 times with PBS/0.05% TWEEN-20. Streptavidin—HRP was added for 1 hour at 37° C. then washed 3 times with PBS/0.05% TWEEN-20. TMB substrate was added and reacted for 20 min at 37° C. A stop solution (2 N aqueous H2SO4) was added. The absorbance was read at 450 nm using a micro-plate spectrophotometer.
Compounds in Table 1 were prepared by methods as described in the Examples and evaluated according to the assay above.

human PD-L1 / Human PD-1, sequence (Q9NZQ7 19-239): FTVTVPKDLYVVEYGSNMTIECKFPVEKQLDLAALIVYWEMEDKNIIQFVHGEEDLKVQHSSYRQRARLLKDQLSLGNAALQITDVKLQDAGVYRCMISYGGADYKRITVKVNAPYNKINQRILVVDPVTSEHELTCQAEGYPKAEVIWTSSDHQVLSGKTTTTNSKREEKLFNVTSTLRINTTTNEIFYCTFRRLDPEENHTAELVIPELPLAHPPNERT

IC50: 0.5 to 20 µM
SMILES: Cc1c(COc2cc3c(cc2Cl)CO[C@H](C(=O)O)CCNC(=O)c2cncc(c2)CN3)cccc1-c1ccccc1 [Compound 1.009]
